From patent US20040121031A1, “Novel topical skin care and nutraceutical applications of Glabridin or extracts containing a defined amount (4-90%) of Glabridin” (priority 2002, published 2004)

Assay: Ease of solubility in cosmetically acceptable solvents
Assay type: physicochemical
Settings: in contrast to Ursolic acid
Source text: In order to formulate an effective cosmetic product, the individual ingredients have to be solublized in cosmetically acceptable solvents. The following table indicates the ease of solubility of glabridin and the licorice extract in contrast to Ursolic acid, a terpenoid compound used in cosmetics for similar claims.

For `CC1(C)C=Cc2c(ccc3c2OC[C@@H](c2ccc(O)cc2O)C3)O1` [glabridin, Glabridin], the ease of solubility was “much more easily soluble than Ursolic acid”.
